Results as given in the supplement of paper PMC10307832.

Tests used:
Assay in all cases: relative viability (nuclei count vs DMSO), 5 days (fraction); higher = more cells survive
[1] = compound: CC1=CC(=CC=C1)NC2=NC(=CS2)C3=CC=NC=C3 + CC1(C)CCC(c2ccc(Cl)cc2)=C(CN2CCN(c3ccc(C(=O)NS(=O)(=O)c4ccc(N[C@H](CCN5CCOCC5)CSc5ccccc5)c(S(=O)(=O)C(F)(F)F)c4)cc3)CC2)C1 [Navitoclax] (partner 0.5 µM)
In short: (§1)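 Dosing by pin tool came one day after lung cancer cell lines were seeded in 1536-well plates, using either one drug or a fixed anchor-drug dose plus five library-drug doses (not always all listed) in √10 steps. After 5 days, nuclei were counted on 4× images. Relative viability is treated-well nuclei count divided by vehicle-well nuclei count, and values are medians of duplicate plates.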

[2] = compound: Cc1ccc(NC(=O)c2ccc(CN3CCN(C)CC3)cc2)cc1Nc1nc(-c2cccnc2)cs1 [Masitinib] + Cc1cc(Nc2cc(N3CCN(C)CC3)nc(Sc3ccc(NC(=O)C4CC4)cc3)n2)n[nH]1 [Tozasertib] (partner 0.1 µM)
In short: as §1

[3] = compound: Cc1ccc(NC(=O)c2ccc(CN3CCN(C)CC3)cc2)cc1Nc1nc(-c2cccnc2)cs1 [Masitinib] + N=C(N)NC(=N)NCCc1ccccc1 [Phenformin] (partner 250 µM)
In short: as §1

[4] = compound: Cc1ccc(NC(=O)c2ccc(CN3CCN(C)CC3)cc2)cc1Nc1nc(-c2cccnc2)cs1 [Masitinib] + Nc1ncn([C@H]2C[C@H](O)[C@@H](CO)O2)c(=O)n1 [Decitabine] (partner 2 µM)
In short: as §1

**Q.** Which relative viability ([1]; first compound 0.08 µM) does the source give for UMC-11 here?
**A.** Its relative viability is 0.281.

**Q.** And the relative viability ([1]; first compound 0.253 µM)?
**A.** Its relative viability is 0.266.

**Q.** And the relative viability ([1]; first compound 0.8 µM)?
**A.** Its relative viability is 0.295.

**Q.** And the relative viability ([1]; first compound 2.53 µM)?
**A.** Its relative viability is 0.348.

**Q.** And the relative viability ([1]; first compound 8 µM)?
**A.** Its relative viability is 0.478.

**Q.** What about the relative viability ([2]; first compound 0.01 µM) of the same cell line?
**A.** Its relative viability is 0.204.

**Q.** And the relative viability ([2]; first compound 0.03162 µM)?
**A.** The relative viability was 0.207.

**Q.** What about the relative viability ([2]; first compound 0.1 µM) of the same cell line?
**A.** The relative viability was 0.198.

**Q.** And the relative viability ([2]; first compound 0.3162 µM)?
**A.** Its relative viability is 0.211.

**Q.** What about the relative viability ([2]; first compound 1 µM) of the same cell line?
**A.** Its relative viability is 0.195.

**Q.** What about the relative viability ([3]; first compound 0.03162 µM) of the same cell line?
**A.** Its relative viability is 0.331.

**Q.** What about the relative viability ([3]; first compound 0.1 µM) of the same cell line?
**A.** The relative viability was 0.363.

**Q.** What about the relative viability ([3]; first compound 0.3162 µM) of the same cell line?
**A.** The relative viability was 0.377.

**Q.** And the relative viability ([3]; first compound 1 µM)?
**A.** Its relative viability is 0.338.

**Q.** What about the relative viability ([4]; first compound 0.01 µM) of the same cell line?
**A.** The relative viability was 0.565.

**Q.** And the relative viability ([4]; first compound 0.03162 µM)?
**A.** Its relative viability is 0.641.

**Q.** What about the relative viability ([4]; first compound 0.1 µM) of the same cell line?
**A.** Its relative viability is 0.692.

**Q.** What about the relative viability ([4]; first compound 0.3162 µM) of the same cell line?
**A.** Its relative viability is 0.608.

**Q.** What about the relative viability ([4]; first compound 1 µM) of the same cell line?
**A.** Its relative viability is 0.596.
